Test system: plants
Test: Test D pre-emergence, other plants of Tables D1 and D3
Assay type: in vivo
Settings: for damage to plant (100=total damage to plant; 0=no damage to plant), SORVU: preemergent, 20 DAA; for damage to plant, ALOMY / damage to plant, AVEFA / damage to plant, BEAVA / damage to plant, BROTE / damage to plant, BRSNN / damage to plant, CHEAL / damage to plant, GALAP / damage to plant, HORVW / damage to plant, KCHSC / damage to plant, LOLPE / damage to plant, POAAN / damage to plant, POLCO / damage to plant, SINAR / damage to plant, STEME / damage to plant, VERPE: pre-emergence, 100=total damage, 0=no damage
Summary of the method: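 Damage was rated visually from 0 (none) to 100 (total), at 20 DAA for pre-emergence and 15 d for post-emergence. Plants grew from safener-treated seed in a glasshouse at 24/18° C. or 20/16° C. day/night, 65% humidity, watered twice daily.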

## CN1C[C@H](c2nn(C)c3c(F)cccc23)[C@@H](C(=O)Nc2cccc(F)c2F)C1=O [Compound 2]
Rate 130
  damage to plant (100=total damage to plant; 0=no damage to plant), SORVU: 0
Rate 250
  damage to plant (100=total damage to plant; 0=no damage to plant), SORVU: 0
Rate 500
  damage to plant (100=total damage to plant; 0=no damage to plant), SORVU: 0
Rate 15, 20 DAA
  damage to plant, ALOMY: 0
  damage to plant, AVEFA: 0
  damage to plant, BEAVA: 0
  damage to plant, BROTE: 0
  damage to plant, BRSNN: 0
  damage to plant, CHEAL: 0
  damage to plant, GALAP: 0
  damage to plant, HORVW: 0
  damage to plant, KCHSC: 0
  damage to plant, LOLPE: 0
  damage to plant, POAAN: 0
  damage to plant, POLCO: 0
  damage to plant, SINAR: 0
  damage to plant, STEME: 0
  damage to plant, VERPE: 0
Rate 30, 20 DAA
  damage to plant, ALOMY: 0
  damage to plant, AVEFA: 0
  damage to plant, BEAVA: 0
  damage to plant, BROTE: 0
  damage to plant, BRSNN: 0
  damage to plant, CHEAL: 0
  damage to plant, GALAP: 0
  damage to plant, HORVW: 0
  damage to plant, KCHSC: 0
  damage to plant, LOLPE: 0
  damage to plant, POAAN: 0
  damage to plant, POLCO: 0
  damage to plant, SINAR: 0
  damage to plant, STEME: 0
  damage to plant, VERPE: 0
Rate 60, 20 DAA
  damage to plant, ALOMY: 0
  damage to plant, AVEFA: 0
  damage to plant, BEAVA: 0
  damage to plant, BROTE: 0
  damage to plant, BRSNN: 0
  damage to plant, CHEAL: 0
  damage to plant, GALAP: 0
  damage to plant, HORVW: 0
  damage to plant, KCHSC: 0
  damage to plant, LOLPE: 10
  damage to plant, POAAN: 0
  damage to plant, POLCO: 0
  damage to plant, SINAR: 0
  damage to plant, STEME: 0
  damage to plant, VERPE: 0
Rate 130, 20 DAA
  damage to plant, ALOMY: 0
  damage to plant, AVEFA: 0
  damage to plant, BEAVA: 0
  damage to plant, BROTE: 10
  damage to plant, BRSNN: 0
  damage to plant, CHEAL: 0
  damage to plant, GALAP: 0
  damage to plant, HORVW: 0
  damage to plant, KCHSC: 0
  damage to plant, LOLPE: 30
  damage to plant, POAAN: 10
  damage to plant, POLCO: 20
  damage to plant, SINAR: 0
  damage to plant, STEME: 0
  damage to plant, VERPE: 0
Rate 250, 20 DAA
  damage to plant, ALOMY: 20
  damage to plant, AVEFA: 0
  damage to plant, BEAVA: 0
  damage to plant, BROTE: 20
  damage to plant, BRSNN: 10
  damage to plant, CHEAL: 0
  damage to plant, GALAP: 0
  damage to plant, HORVW: 10
  damage to plant, KCHSC: 0
  damage to plant, LOLPE: 60
  damage to plant, POAAN: 50
  damage to plant, POLCO: 20
  damage to plant, SINAR: 0
  damage to plant, STEME: 0
  damage to plant, VERPE: 0
Rate 500, 20 DAA
  damage to plant, ALOMY: 40
  damage to plant, AVEFA: 10
  damage to plant, BEAVA: 10
  damage to plant, BROTE: 20
  damage to plant, BRSNN: 20
  damage to plant, CHEAL: 0
  damage to plant, GALAP: 0
  damage to plant, HORVW: 20
  damage to plant, KCHSC: 0
  damage to plant, LOLPE: 70
  damage to plant, POAAN: 90
  damage to plant, POLCO: 60
  damage to plant, SINAR: 0
  damage to plant, STEME: 60
  damage to plant, VERPE: 0

From patent US20220281848A1, “PYRAZOLE-SUBSTITUTED PYRROLIDINONES AS HERBICIDES” (FMC Corporation, priority 2019, published 2022)
